The assay concerns the target Phosphoribosylglycinamide formyltransferase (Escherichia coli) (UniProt P08179). The assay is described as follows: In vitro inhibitory activity against Glycinamide ribonucleotide transformylase (GAR Tfase) following 30 min pre-incubation at 250 uM concentration.
Chain of Phosphoribosylglycinamide formyltransferase (Escherichia coli) (P08179 whole entry, looked up): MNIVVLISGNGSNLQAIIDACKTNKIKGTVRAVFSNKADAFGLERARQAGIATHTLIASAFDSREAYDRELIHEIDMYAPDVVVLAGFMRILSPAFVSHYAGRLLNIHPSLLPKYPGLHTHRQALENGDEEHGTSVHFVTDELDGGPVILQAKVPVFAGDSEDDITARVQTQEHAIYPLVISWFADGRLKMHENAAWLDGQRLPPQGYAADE
As to `COC(=O)c1ccc(CN(CCCc2c(N)nc(N)nc2O)c2cc(F)c(F)cc2[N+](=O)[O-])cc1`, the inhibition (as a rule, how much of the control response was suppressed) was determined as 33%. Consider `COC(=O)c1ccc(CN(CCCc2c(N)nc(N)nc2O)c2cc(F)c([N+](=O)[O-])cc2[N+](=O)[O-])cc1`, for which the inhibition came to 9%. Molecule `COC(=O)c1ccc(CN(CCc2c(N)nc(N)nc2O)c2cc(F)ccc2[N+](=O)[O-])cc1` registered an inhibition of 43%. Molecule `COC(=O)c1ccc(CN(CCc2c(N)nc(N)nc2O)c2ccc([N+](=O)[O-])c(F)c2F)cc1` returned an inhibition of 60%.

Molecule `Nc1nc(N)c(CCCNc2cc(F)cc(F)c2[N+](=O)[O-])c(O)n1` came in with an inhibition of 70%. The value for `COC(=O)c1ccc(CN(CCCc2c(N)nc(N)nc2O)c2cc(F)cc(F)c2[N+](=O)[O-])cc1` was 5%. Then `COC(=O)c1ccc(CN(CCc2c(N)nc(N)nc2O)c2cc(F)c(F)cc2[N+](=O)[O-])cc1`, with 3%; and `COC(=O)c1ccc(CN(CCc2c(N)nc(N)nc2O)c2cc(F)cc(F)c2[N+](=O)[O-])cc1`, with 9%. Then `Nc1nc(N)c(CCCNc2cc(F)c(F)cc2[N+](=O)[O-])c(O)n1`, with 82%. `COC(=O)c1ccc(CN(CCCc2c(N)nc(N)nc2O)c2ccc([N+](=O)[O-])c(F)c2F)cc1` returned an inhibition of 57%.

Consider `COC(=O)c1ccc(CN(CCCc2c(N)nc(N)nc2O)c2cc(F)ccc2[N+](=O)[O-])cc1`, for which the inhibition worked out at 41%.

`COC(=O)c1ccc(CN(CCc2c(N)nc(N)nc2O)c2cc(F)c([N+](=O)[O-])cc2[N+](=O)[O-])cc1` came in with an inhibition of 24%. The value for `Nc1nc(N)c(CCCNc2cc(F)c([N+](=O)[O-])cc2[N+](=O)[O-])c(O)n1` was 73%; that for `Nc1nc(N)c(CCCNc2cc(F)ccc2[N+](=O)[O-])c(O)n1` was 69%.
